Measurements reported in patent publication US20220274927A1, “MEMBRANE-ACTIVE ANTI-BACTERIAL COMPOUNDS AND USES THEREOF” (Trustees of Dartmouth College, priority 2019, published 2022).
Values after ≈ are worked out from the molar mass of the structure shown. “Also recorded” adds a separate entry of the source. Like-named read-outs stand apart in the source and are kept apart here.

Legend:
[1] = test system: S. aureus membranes (versus erythrocyte membranes); assay: in vitro; format: cell-based, sheep; settings: sheep
Description: (§1) FIG. 8 illustrates percent hemolysis analysis of sheep erythrocytes. Concentration-dependent hemolysis was measured by monitoring the optical density (OD)540 of PBS-washed sheep erythrocytes. Complete hemolysis (100%) was confirmed by treatment of erythrocytes with Triton X-100. Data points represent the mean±SD of triplicate experiments.
(§2) The macromolecular synthesis assay, TEM, and FM experiments were all consistent with membrane disruption. […] The high membrane selectivity of the 5-aminoquinolin-4-ones in this assay is impressive and is in accordance with the observed therapeutic index (CC50/MIC).

sheep erythrocytes = assay: in vitro; format: cell-based; settings: for hemolysis: sheep, 32 μg/mL
Description: as §1, §2

[2] = test system: methicillin-resistant S. aureus (FPR3757); assay: MIC against clinical MRSA strain FPR3757 in Mueller-Hinton broth (CLSI); format: cell-based, Staphylococcus aureus; settings: MRSA clinical strain FPR3757, Mueller-Hinton broth, CLSI guidelines, complete inhibition of observable growth
From the text: (§3) The first set of compounds evaluated were analogs at the C-7 and C-8 positions of the initial quinolone hit DNAC-2 since the other HTS hits identified (data not shown) were substituted at these positions (Table 1). Applicants first explored modification at the C-7 position with a small series of electron-donating and withdrawing substituents. […] However, analogs containing electron donating groups at C-7 including ethyl 7, benzyloxy 8, methoxy 9 and methylthio 10 are weakly active displaying MICs of 320-640 μg/mL indicating electron-donating substituents at C-7 are poorly tolerated. […] The C-8 position was evaluated with trifluoromethyl 4 and trifluoromethoxy 5 containing the optimal C-7 substituents. Both 4 and 5 are equipotent to the corresponding C-7 analogs 2 and 3 indicating some flexibility of the quinolone scaffold.

S. aureus N325 = assay: Antimicrobial susceptibility MIC, S. aureus N325; format: cell-based; settings: Staphylococcus aureus; S. aureus strain N325
From the text: as §3
(§4) The compounds maintain activity against Staphylococcus epidermidis; however, 31, 111 and 123 all lose considerable potency against Enterococcus faecalis and Enterococcus faecium, which contribute heavily, along with MRSA, to healthcare-associated infections.

E. faecium DHMC #1 = assay: Antimicrobial susceptibility MIC, E. faecium DHMC #1; format: cell-based; settings: Enterococcus faecium; E. faecium strain DHMC #1
From the text: as §3, §4

E. faecalis DHMC #1 = assay: Antimicrobial susceptibility MIC, E. faecalis DHMC #1; format: cell-based; settings: Enterococcus faecalis; E. faecalis strain DHMC #1
From the text: as §3, §4

S. aureus NRS71 = assay: Antimicrobial susceptibility MIC, S. aureus NRS71; format: cell-based; settings: Staphylococcus aureus; S. aureus strain NRS71
From the text: as §3, §4

S. aureus (MRSA) = assay: In vitro time-kill assay; format: cell-based; settings: 1× MIC, initial inoculum 10^5 CFU, plating over six hours
Description: FIG. 4 illustrates in vitro time-kill analysis of methicillin resistant Staphylococcus aureus (MRSA). Bacterial killing was monitored by measuring the colony forming unit (CFU) for six hours when treated with compounds 22, 31, 117, and 123 at 1× the minimum inhibitory concentration (MIC) of each compound. The CFU at each time point was determined by plating and then compared to a dimethyl sulfoxide (DMSO) control.
While the MIC data confirmed that these compounds were at least bacteriostatic, Applicants wanted to test for bactericidal properties of both the aminoquinoline and aminoquinolone scaffolds. […] The kinetics of bacterial killing was assessed in vitro using time-kill assays by incubating compounds at 1× their MIC with an initial inoculum of 10^5 colony forming units (CFU) of S. aureus and removing aliquots at various time points to determine the residual CFU by plating.

S. aureus COL = assay: Antimicrobial susceptibility MIC, S. aureus COL; format: cell-based; settings: Staphylococcus aureus; S. aureus strain COL
From the text: as §3, §4

S. aureus (strain COL) = assay: Fluorescent microscopy of membrane, cell wall and DNA; format: cell-based; settings: 1× MIC, 30 minutes, vs DMSO
Description: FIGS. 7A and 7B illustrate fluorescent microscopy (FM) analysis of the membrane, cell wall, and DNA in MRSA. FM of COL MRSA strain treated with compound 123 (FIG. 7B, bottom row) at 1×MIC and DMSO (FIG. 7A, top row) for 30 minutes followed by staining with FM-64 (far left column, 0.5 μg/mL), VanFL (second column, 1 μg/mL), and Hoechst (third column, 1 μg/mL) for 5 minutes and washed with 1× phosphate buffered saline (PBS) before imaging (fourth column, overlay).
(§5) These cellular defects were not seen in any of the control cells treated with DMSO. Fluorescent microscopy was performed on a S. aureus (strain COL) strain after treatment with either DMSO, 31 or 123 for 30 minutes followed by staining with FM 4-64 (red membrane stain), bodipy-vancomycin (Van-FL, green stain), and Hoechst (blue DNA stain).

Staphylococcus simulans = assay: Macromolecular synthesis assays (radiolabeled precursor incorporation); format: cell-based
From the text: FIG. 5 illustrates macromolecular synthesis assays (representative data with 123). Time-course for inhibition of incorporation of radiolabeled precursors [^3H]-L-isoleucine (protein), [^3H]-thymidine (DNA), [^3H]-uridine (RNA), and [^3H]-glucosamine (cell wall) in S. simulans by 123 at 0.5×, 1× and 5×MIC. Data are expressed as the percentage of inhibition relative to the DMSO only negative control. The positive control antibiotics denoted by closed circles were used at 10× MIC. Data represent the mean±standard deviation (SD) of triplicate experiments.
Classical macromolecular synthesis assays were performed to provide insight on the putative mechanism of action of the most promising quinoline 31 and quinolone 123 candidates. Disruption of bacterial membranes is not only rapid, but interferes with all major metabolic activities in the cell and is thus easily distinguished by macromolecular synthesis assays. […] The control antibiotics ciprofloxacin, rifampicin, vancomycin and tetracycline were included as inhibitors of DNA, RNA, cell wall, and protein synthesis, respectively. The cells were quenched at various time points with 10% trichloroacetic acid (TCA), filtered, washed and the amount of precursor incorporation was quantified by scintillation counting.

S. aureus NIH04008 = assay: Antimicrobial susceptibility MIC, S. aureus NIH04008; format: cell-based; settings: Staphylococcus aureus; S. aureus strain NIH04008; read-out: MIC
From the text: as §3, §4

S. epidermidis NIH04003 = assay: Antimicrobial susceptibility MIC, S. epidermidis NIH04003; format: cell-based; settings: Staphylococcus epidermidis; S. epidermidis strain NIH04003
From the text: as §3, §4

[3] = test system: MRSA clinical strain S. aureus FPR3757; assay: Minimum bactericidal concentration (MBC) against S. aureus FPR3757; format: cell-based
[4] = test system: S. aureus (strain USA300); assay: Transmission electron microscopy of treated cells; format: cell-based; settings: 1× MIC, after 10 minutes, vs DMSO
Description: FIGS. 6A, 6B and 6C illustrate transmission electron microscopy (TEM) imaging of MRSA USA300 treated with compounds 22 and 31.
Transmission electron microscopy (TEM) and fluorescence microscopy (FM) allowed Applicants to directly observe the effects of the novel 4-aminoquinolines […] 5-aminoquinolones on the cell morphology of staphylococci.
as §5

S. aureus MW2 = assay: Antimicrobial susceptibility MIC, S. aureus MW2; format: cell-based; settings: Staphylococcus aureus; S. aureus strain MW2; read-out: MIC
From the text: as §3, §4

[5] = test system: clinical methicillin-resistant Staphylococcus aureus (MRSA) isolates; assay: MIC against panel of MRSA / staphylococcal strains (text summaries); format: cell-based
From the text: as §3, §4

[6] = Staphylococcus aureus, MRSA, read-out: MIC

## O=c1cc(C(F)(F)F)[nH]c2cc(C(F)(F)F)cc(NC3CCC(C(F)(F)F)CC3)c12 (centres unmarked) [Compound 117]
[1]
  selectivity ratio: > 500
Sheep erythrocytes
  hemolysis: None of the compounds except 76, displayed any hemolysis
[2]; [6]
  MIC: < 0.06 µg/mL

## O=c1cc(C(F)(F)F)[nH]c2cc(C(F)(F)F)cc(N3CCOCC3)c12 [Compound 118]
[2]; [6]
  MIC: > 32 µg/mL

## O=c1cc(C(F)(F)F)[nH]c2cc(Nc3ccc(Cl)c(Cl)c3)cc(C(F)(F)F)c12 [Compound 119]
[2]; [6]
  MIC: 1 µg/mL (≈ 2.27 µM)

## O=c1cc(C(F)(F)F)[nH]c2cc(Nc3ccc(F)c(F)c3)cc(C(F)(F)F)c12 [Compound 120]
[2]; [6]
  MIC: 4 µg/mL (≈ 9.8 µM)

## O=c1cc(C(F)(F)F)[nH]c2cc(Nc3ccc(C(F)(F)F)cn3)cc(C(F)(F)F)c12 [Compound 122]
[2]
  MIC: 4 µg/mL (≈ 9.07 µM)

## O=c1cc(C(F)(F)F)[nH]c2cc(F)cc(Nc3ccc(C(F)(F)F)cn3)c12 [Compound 123]
[1]
  selectivity ratio: > 500
Sheep erythrocytes
  hemolysis: None of the compounds except 76, displayed any hemolysis
S. aureus N325
  MIC: < 0.06 µg/mL
E. faecium DHMC #1
  MIC: 8 µg/mL (≈ 20.4 µM)
E. faecalis DHMC #1
  MIC: 8 µg/mL (≈ 20.4 µM)
S. aureus NRS71
  MIC: < 0.06 µg/mL
S. aureus (MRSA)
  time-kill: CFU reduction: reduced the CFU below the limit of detection at four to six hours
[2]
  MIC: <0.06 µg/mL
[2]; [6]
  MIC: < 0.06 µg/mL
S. aureus COL
  MIC: < 0.06 µg/mL
S. aureus (strain COL)
  DNA and cell wall staining (Hoechst, Van-FL): little or no change compared to the DMSO control
  membrane staining (FM 4-64): membrane defects
Staphylococcus simulans; 0.5×, 1× and 5× MIC
  inhibition of DNA, RNA, protein and cell-wall synthesis: concentration-dependent inhibition of DNA, RNA, protein and cell-wall synthesis
Staphylococcus simulans; 5× the MIC, DNA, RNA, protein, cell wall precursor incorporation
  inhibition of macromolecular processes at 5× MIC: completely inhibited all macromolecular processes
S. aureus NIH04008
  MIC: < 0.06 µg/mL
S. epidermidis NIH04003
  MIC: < 0.06 µg/mL
[3]
  MBC relative to MIC: MBCs equal to their MIC values
[4]
  cell morphology in TEM images: cross-wall-septum formation with reduced splitting; also recorded: mesosome-like membrane inclusions
S. aureus MW2
  MIC: < 0.06 µg/mL
[5]; read-out: MIC against numerous clinical MRSA isolates
  MIC: ≤ 0.06 µg/mL
[5]; six S. aureus strains of Table 9, read-out: MIC towards all six S. aureus strains
  MIC: < 0.06 µg/mL

## Triton X-100 [reference compound]
Sheep erythrocytes
  lysis (positive control): 100%
